In experiment [1] the test system is Staphylococcus aureus subsp. aureus (ATCC29213). As to the kind of experiment: MIC, broth microdilution (CLSI), Staphylococcus aureus ATCC29213. Type of experiment: cell-based. The following applies: for MIC: Staphylococcus aureus; for S. aureus ATCC 29213 MIC: Table XIII, hydrochloride salt.
In experiment [2] the test system is E. coli RNase P RNA, M1 RNA. The experiment is described as follows: Inhibition of bacterial RNase P activity, IC50 determination (cleavage of pATSerUG by M1 RNA). The following applies: NI: No inhibition. Type of experiment: biochemical.
Experiment [3] concerns Escherichia coli (ATCC25922). The experiment is described as follows: MIC, broth microdilution (CLSI), Escherichia coli. The following applies: for MIC: Escherichia coli, ATCC25922, read-out: E. coli ATCC 25922 MIC, Table XIII.
The mark [4] stands for this setting: ATCC29213, read-out: S. aureus ATCC 29213 MIC, Table XIII.
Setting [5] is: ATCC29213, Table XIII, read-out: S. aureus ATCC 29213 MIC.

pIC50: −log10 of the molar value. Converted amounts (≈) assume the structure as drawn. Where a name gives a salt, the structure may show the parent alone. Read-outs that look alike come from different tables or passages of the source. A value given as a limit tells only on which side of the number the result lay.

As to `N#Cc1ccc2c(C(CCNC3CCNCC3)c3cccc(OC(F)(F)F)c3)cn(C3CCCCC3)c2c1` (stereo not drawn) [Compound 414, 1-cyclohexyl-3-(3-(piperidin-4-ylamino)-1-(3-(trifluoromethoxy)phenyl)propyl)-1H-indole-6-carbonitrile hydrochloride salt], the figures for the MIC in experiment [1] (setting [4]) and in experiment [3] were 4 µg/mL and 8 µg/mL, respectively. Moreover, in experiment [2], the pIC50 is 4.80.
For the molecule `CCCCCCCCn1cc(C(CCNCCCN)C2CCCCC2)c2ccccc21.Cl.Cl` (stereo not drawn) [Compound 417, N1-(3-cyclohexyl-3-(1-octyl-1H-indol-3-yl)propyl)propane-1,3-diamine hydrochloride salt], the MIC worked out at 2 µg/mL in experiment [1] (setting [5]) and 4 µg/mL in experiment [3]. The molecule further had a pIC50 in experiment [2] of 5.55.
Consider `Cc1cccc(C(CCNCCCNS(=O)(=O)c2ccc(F)cc2)c2cn(C3CCCCC3)c3ccccc23)c1` (stereo not drawn) [Compound 365, N-(3-((3-(1-cyclohexyl-1H-indol-3-yl)-3-(m-tolyl)propyl)amino)propyl)-4-fluorobenzenesulfonamide], for which the MIC in experiment [1] (setting [5]) is 4 µg/mL (≈ 7.12 µM); in experiment [3], greater than 128 µg/mL. The molecule further gave a pIC50 in experiment [2] of 4.68.
With `Cl.Cl.NCCCNCCC(c1cccc(OC(F)(F)F)c1)c1cn(C2CCCCC2)c2ccccc12` (stereo not drawn) [Compound 370, N1-(3-(1-cyclohexyl-1H-indol-3-yl)-3-(3-(trifluoromethoxy)phenyl)propyl) propane-1,3-diamine salt], the MIC in experiment [1] (setting [5]) and in experiment [3] was 4 µg/mL throughout. The pIC50 in experiment [2] is 5.08.
Regarding `Cl.Cl.NCCCNCCC(c1cccc(F)c1)c1cn(C2CCCCC2)c2ccccc12` (stereo not drawn) [Compound 344, N1-(3-(1-cyclohexyl-1H-indol-3-yl)-3-(3-fluorophenyl)propyl) propane-1,3-diamine hydrochloride salt], the MIC is 8 µg/mL in experiment [1] (setting [5]) and 4 µg/mL in experiment [3]. Moreover, the pIC50 in experiment [2] is 4.28.
Taken in the same sequence, the figures for `Cl.Cl.NCCCNCCC(c1ccccc1)c1cn(C2CCCCC2)c2ccccc12` (stereo not drawn) [Compound 343, N1-(3-(1-cyclohexyl-1H-indol-3-yl)-3-phenylpropyl) propane-1,3-diamine hydrochloride salt] were 8 µg/mL, 4 µg/mL and 4.19.
As to `Cc1cccc(C(CCNCCCN)c2cn(C3CCCCC3)c3ccc(Br)cc23)c1.Cl.Cl` (stereo not drawn) [Compound 655, N1-(3-(5-bromo-1-cyclohexyl-1H-indol-3-yl)-3-(m-tolyl)propyl)propane-1,3-diamine hydrochloride salt], the MIC in experiment [1] (setting [5]) and in experiment [3] was 4 µg/mL throughout. The same molecule had a pIC50 in experiment [2] of 4.96.
Consider `NC1CCC(NCCC(c2cccc(OC(F)(F)F)c2)c2cn(C3CCCCC3)c3ccccc23)CC1` [Compound 397, (1S,4S)-N1-(3-(1-cyclohexyl-1H-indol-3-yl)-3-(3-(trifluoromethoxy)phenyl)propyl)cyclohexane-1,4-diamine hydrochloride salt], for which, in experiment [1], the “S. aureus ATCC 29213 MIC” value is 2 µg/mL. Also, the pIC50 in experiment [2] (hydrochloride salt) was 5.22. Further, in experiment [3] (Table XIII), the “E. coli ATCC 25922 MIC” value was 8 µg/mL.
With `Cl.Cl.N[C@H]1CC[C@H](NCCCc2cn(C3CCCCC3)c3ccc(C4CCCCC4)cc23)CC1` [Compound 398, (1r,4r)-N1-(3-(1,5-dicyclohexyl-1H-indol-3-yl)propyl)cyclohexane-1,4-diamine hydrochloride salt], the MIC is 2 µg/mL in experiment [1] (setting [5]) and 4 µg/mL in experiment [3]. The molecule also had a pIC50 in experiment [2] of 5.05.
As for `Cl.Cl.N#Cc1ccc2c(c1)c(C(CCNCCCN)C1CCCCC1)cn2C1CCCCC1` (stereo not drawn) [Compound 382, 3-(3-((3 - aminopropyl)amino)-1-cyclohexylpropyl)-1-cyclohexyl-1H-indole-5-carbonitrile hydrochloride salt], the MIC in experiment [1] (setting [5]) and in experiment [3] was 4 µg/mL in each case. Besides, in experiment [2], the pIC50 is 4.70.
Regarding `CCCCCCCCn1cc(C(CCNCCCN)C(CC)CC)c2ccccc21.Cl.Cl` (stereo not drawn) [Compound 426, N1-(4-ethyl-3-(1-octyl-1H-indol-3-yl)hexyl)propane-1,3-diamine hydrochloride salt], the MIC in experiment [1] (setting [5]) and in experiment [3] was 4 µg/mL throughout. Besides, in experiment [2], the pIC50 was 5.08.
As for `Cc1cccc(-c2ccc3c(c2)c(C2CCCC(NC4CCNCC4)C2)cn3C2CCCCC2)c1` (stereo not drawn) [Compound 396, N-(3-(1-cyclohexyl-5-(m-tolyl)-1H-indol-3-yl)cyclohexyl)piperidin-4-amine hydrochloride salt], the MIC was 2 µg/mL in experiment [1] (setting [4]) and 4 µg/mL in experiment [3]. In addition, the pIC50 in experiment [2] was 4.92.
Turning to `Cl.Cl.NCCCNCCC(c1cc(Cl)cc(Cl)c1)c1cn(C2CCCCC2)c2ccccc12` (stereo not drawn) [Compound 349, N1-(3-(1-cyclohexyl-1H-indol-3-yl)-3-(3,5-dichlorophenyl)propyl) propane-1,3-diamine hydrochloride salt], the MIC in experiment [1] (setting [5]) stood at 2 µg/mL; in experiment [3], 4 µg/mL. The molecule further gave a pIC50 in experiment [2] of 4.80.
For `Cl.Cl.N#Cc1ccc2c(C(CCNCCCN)c3cccc(OC(F)(F)F)c3)cn(C3CCCCC3)c2c1` (stereo not drawn) [Compound 410, 3-(3-((3-aminopropyl)amino)-1-(3-(trifluoromethoxy)phenyl)propyl)-1-cyclohexyl-1H-indole-6-carbonitrile salt], the MIC in experiment [1] (setting [5]) and in experiment [3] was 4 µg/mL each time. Also, in experiment [2], the negative logarithm of the IC50 (pIC50) was 5.00.
Turning to `Cc1cccc(C(CCNCCCN)c2cn(CC3CCCCC3)c3ccc([N+](=O)[O-])cc23)c1` (stereo not drawn) [Compound 424, N1-(3-(1-cyclohexylmethyl)-5-nitro-1H-indol-3-yl)-3-(m-tolyl)propyl)propane-1,3-diamine hydrochloride salt], the MIC in experiment [1] (setting [5]) came to 2 µg/mL; in experiment [3], 4 µg/mL. This molecule showed a pIC50 in experiment [2] of 5.07.
As to `Cc1cccc(C(CCNC2CCC(N)CC2)c2cn(C3CCCCC3)c3ccccc23)c1` (stereo not drawn) [Compound 308, N1-(3-(1-cyclohexyl-1H-indol-3-yl)-3-(m-tolyl)propyl)cyclohexane-1,4-diamine hydrochloride salt], in experiment [1], the “S. aureus ATCC 29213 MIC” value was 4 µg/mL. The pIC50 in experiment [2] (hydrochloride salt) was 4.54. The MIC in experiment [3] was 4 µg/mL.
Consider `Cc1cccc(C(CCNC2CCC(N)CC2)c2cn(CC3CCCCC3)c3ccc([N+](=O)[O-])cc23)c1` [Compound 425, (1S,4S)-N1-(3-(1-(cyclohexylmethyl)-5-nitro-1H-indol-3-yl)-3-(m-tolyl)propyl) cyclohexane-1,4-diamine hydrochloride salt], for which the MIC in experiment [1] (setting [5]) came to 2 µg/mL; in experiment [3], 8 µg/mL. In experiment [2], this molecule had a pIC50 of 4.92.
As for `NCCCNCCC(c1cn(C2CCCCC2)c2ccccc12)C1CCCCC1` (stereo not drawn) [Compound 383, N1-(3-cyclohexyl-3-(1-cyclohexyl-1H-indol-3-yl)propyl)propane-1,3-diamine], the MIC in experiment [1] (setting [5]) and in experiment [3] was 4 µg/mL (≈ 10.1 µM) each time. The same molecule had a pIC50 in experiment [2] of 4.55.
With `NC1CCC(NCCC(c2cccc(OC(F)(F)F)c2)c2cn(C3CCCCC3)c3ccccc23)CC1` [Compound 393, (1S,4S)- -N1-(3-(1-cyclohexyl-1H-indol-3-yl)-3-(3-(trifluoromethoxy)phenyl)propyl)cyclohexane-1,4-diamine hydrochloride salt], the results for the MIC in experiment [1] (setting [4]) and in experiment [3] were 4 µg/mL and 8 µg/mL, respectively. For the same molecule, in experiment [2] (hydrochloride salt), the pIC50 was 4.80.
With `NCCCNC1CCCC(c2cn(C3CCCCC3)c3ccc(-c4cccc(OC(F)(F)F)c4)cc23)C1` (stereo not drawn) [Compound 404, N1-(3-(1-cyclohexyl-5-(3-(trifluoromethoxy)phenyl)-1H-indol-3-yl)cyclohexyl)propane-1,3-diamine hydrochloride salt], the MIC turned out to be 4 µg/mL in experiment [1] (setting [4]) and 8 µg/mL in experiment [3]. In addition, in experiment [2], the pIC50 was 5.32.
As for `Cc1cccc(-c2ccc3c(c2)c(CCCNCCCN)cn3CC2CCCCC2)c1.Cl.Cl` [Compound 375, N1-(3-(1-(cyclohexylmethyl)-5-(m-tolyl)-1H-indol-3-yl)propyl)propane-1,3-diamine hydrochloride salt], the MIC in experiment [1] (setting [5]) and in experiment [3] was 4 µg/mL each time. In experiment [2], the pIC50 was 5.33.
As to `N#Cc1ccc2c(C(CCNC3CCC(N)CC3)c3cccc(OC(F)(F)F)c3)cn(C3CCCCC3)c2c1` [Compound 415, 3-(3-(((1S,4S)-4-aminocyclohexyl)amino)-1-(3-(trifluoromethoxy)phenyl)propyl)-1-cyclohexyl-1H-indole-6-carbonitrile hydrochloride salt], the values for the MIC in experiment [1] (setting [4]) and in experiment [3] were 4 µg/mL and 16 µg/mL, respectively. The molecule also had a pIC50 in experiment [2] of 4.80.
`Cc1cccc(CC(CCNC2CCC(N)CC2)c2cn(C3CCCCC3)c3ccccc23)c1.Cl.Cl` [Compound 408, (1R,4R)-N1-(3-(1-cyclohexyl-1H-indol-3-yl)-4-(m-tolyl)butyl)cyclohexane-1,4-diamine hydrochloride salt]: the MIC in experiment [1] (setting [5]) was 4 µg/mL; in experiment [3] it was 8 µg/mL. Moreover, the negative logarithm of the IC50 (pIC50) in experiment [2] was 4.68.
For `Cc1cccc(C(CCNC2CCN(C(=N)N)CC2)c2cn(C3CCCCC3)c3ccccc23)c1.Cl` (stereo not drawn) [Compound 353, 4-((3-(1-cyclohexyl-1H-indol-3-yl)-3-(m-tolyl)propyl)amino)piperidine-1-carboximidamide hydrochloride salt], the MIC was found to be 4 µg/mL in experiment [1] (setting [5]) and 32 µg/mL in experiment [3]. The molecule also showed a pIC50 in experiment [2] of 4.72.
Regarding `N#Cc1ccc2c(c1)c(C(CCNC1CCNC1)C1CCCCC1)cn2C1CCCCC1` (stereo not drawn) [Compound 413, 1-cyclohexyl-3-(1-cyclohexyl-3-(pyrrolidin-3-ylamino)propyl)-1H-indole-5-carbonitrile hydrochloride salt], the MIC is 4 µg/mL in experiment [1] (setting [4]) and 8 µg/mL in experiment [3]. For the same molecule, in experiment [2], the pIC50 was 4.70.

The values above are taken from patent publication US20210246115A1 (Bioimics AB, priority 2017, published 2021).
